Source: US10517861B2, “Biomarkers for predicting and assessing responsiveness of endometrial cancer subjects to lenvatinib compounds” (Eisai R&D Management Co., Ltd., priority 2013, dated 2019)

What was measured:
[1] = system: cytokine, chemokine and angiogenic factors (CAFs); experiment: Plasma cytokine, chemokine and angiogenic factor (CAF) levels pre- and post-treatment with E7080 (ELISA and multiplex); format: in vivo, human; conditions: cycle 2 day 1 vs cycle 1 day 1 (baseline), 122 patients
Excerpt: (§1) The purpose of this analysis was to measure cytokine, chemokine and angiogenic factors in blood samples, such as plasma and serum, obtained from patients in clinical trials at both pre- and post-treatment with E7080 and to identify blood biomarkers which can be used to predict whether patients will respond to treatment with E7080. For these analyses, the following criteria of response were employed, namely:
Materials and Methods: Patients who had metastatic/unresectable endometrial cancer after 1 or 2 prior platinum-based treatments received lenvatinib until disease progression or development of unmanageable toxicities. Patients received E7080 at a starting dose of 24 mg orally once daily in 28 day cycles. 133 patients were treated and evaluated for efficacy and molecular correlative analysis. This study was a part of the Phase 2 multicenter study of lenvatinib (ClinicalTrial.gov Identifier: NCT01111461). Baseline and post-treatment plasma samples were collected for molecular analyses. […] The association of progression free survival (PFS) and overall survival (OS) were analyzed. […] The ELISA plates were measured using a Molecular Devices UVmax kinetic microplate reader with SoftMax Pro 5.2 software. […] Final protein concentrations (pg/mL) were calculated from the standard curve for each assay. […]

[2] = system: patients with advanced or recurrent endometrial cancer (EC); experiment: Phase II study of E7080 in patients with advanced or recurrent endometrial cancer: tumor response (ORR) and survival (PFS, OS); format: in vivo, human
Method: Purpose: Angiogenesis is regulated by signaling through multiple growth factor receptors, such as VEGF receptor and FGF receptor. VEGF receptor signaling is also associated with immune cell function. E7080 is an oral angiogenesis inhibitor targeting multiple receptor tyrosine kinase; VEGFR1-3, FGFR1-4, RET, KIT, and PDGFRβ. A phase II study was performed in patients with advanced or recurrent endometrial cancer (EC) following 1 or 2 prior platinum-based treatments (Tx). The importance of angiogenesis in EC highlights the need to understand clinical mechanisms of escape from anti-angiogenic therapy. This clinical biomarker analysis was conducted to identify predictive markers of clinical benefit in EC patients upon E7080 treatment. Circulating cytokine and angiogenic factors (CAFs) can be measured in blood samples using ELISA and multiplex assay platforms. The CAFs examined in this study are listed below in Table 2. Numbers in parenthesis indicate bead region for each analyte.
as §1
(a) Tumor response: objective response rate (ORR) and % of maximum tumor shrinkage (MTS); and
(b) Survival Benefits: progression free survival (PFS)/overall survival (OS).
Materials and Methods: Patients who had metastatic/unresectable endometrial cancer after 1 or 2 prior platinum-based treatments received lenvatinib until disease progression or development of unmanageable toxicities. Patients received E7080 at a starting dose of 24 mg orally once daily in 28 day cycles. 133 patients were treated and evaluated for efficacy and molecular correlative analysis. This study was a part of the Phase 2 multicenter study of lenvatinib (ClinicalTrial.gov Identifier: NCT01111461). Baseline and post-treatment plasma samples were collected for molecular analyses. Plasma samples were collected at Cycle 1 Day 1 (pre-treatment) and Cycle 2 Day 1 (i.e., day […] post-treatment). Six mL of intravenous blood was drawn into EDTA vacutainer tubes. The tubes were gently inverted 6-8 times and then centrifuged at 3000 RPM for 10 minutes to separate the plasma from the red cell layer. Plasma was collected from the tube and dispensed into a 3.5 mL cryovial using a transfer pipette, and then stored immediately at −20° C. The plasma samples were shipped on dry ice and then ultimately transferred to −80° C. storage. Plasma samples from 122 patients were used for blood biomarker analysis. Serum from Cycle 1 day 1 (baseline), and cycle 2 day 1 were used in this analysis. The association of progression free survival (PFS) and overall survival (OS) were analyzed. Plasma samples were tested in batch format where all timepoints from the same subject were assayed on the same day. On the day of assay, samples were removed from −80° C. and allowed to thaw and reach room temperature. The plasma samples were tested in a panel of ELISA and multiplex kit as per the manufacturer's instructions. The ELISA plates were measured using a Molecular Devices UVmax kinetic microplate reader with SoftMax Pro 5.2 software. The multiplex assays were performed using the Bio-Rad Bio-Plex system with Bio-Plex Manager 4.1 software. Final protein concentrations (pg/mL) were calculated from the standard curve for each assay. Depending on the assay, plasma samples may have been diluted in assay buffer prior to testing. In these cases, protein concentrations were multiplied by the dilution factor.
A cut-off value of Ang-2 was used to test if patients with baseline Ang-2 levels have better clinical outcomes, such as ORR, PFS, and OS. […]

[3] = sub-group with high baseline Ang-2 (>2082 pg/ml), 98 patients
[4] = sub-group with low baseline Ang-2 (<2082 pg/ml), 24 patients
[5] = without stratification based on Ang-2 levels

COc1cc2nccc(Oc3ccc(NC(=O)NC4CC4)c(Cl)c3)c2cc1C(N)=O [E7080, 4-(3-chloro-4-(cyclopropylaminocarbonyl)aminophenoxy)-7-methoxy-6-quinolinecarboxamide]
changes in levels of CAFs at post-treatment compared to pre-treatment [1]: Significant changes in levels of 19 CAFs among 50 CAFs tested | Progression-Free Survival (months) Median ([2]; Full Set Analysis (N = 133)): 5.4 months | Objective Response (CR + PR) ([2]; Full Set Analysis (N = 133), 24 mg orally once daily): 21.8% | Objective Response (CR + PR) ([2]; High Ang-2 ≥2082.51 (N = 98)): 17.8% | Overall Survival (months) Median ([2]; High Ang-2 ≥2082.51 (N = 98)): 8.9 months | Progression-Free Survival (months) Median ([2]; High Ang-2 ≥2082.51 (N = 98)): 3.7 months | Objective Response (CR + PR) ([2]; Low Ang-2 <2082.51 (N = 24)): 60.9% | Progression-Free Survival (months) Median ([2]; Low Ang-2 <2082.51 (N = 24)): 9.5 months | Median PFS ([2]; baseline ANG2(90), 0-25% subgroup): 225 days | mOS (day) in each quartile ([2]; baseline ANG2(90), 1st (low) quartile): 541 days | mOS (day) in each quartile ([2]; baseline ANG2(90), 2nd quartile): 353 days | mOS (day) in each quartile ([2]; baseline ANG2(90), 3rd quartile): 256 days | mOS (day) in each quartile ([2]; baseline ANG2(90), 4th (high) quartile): 260 days | Median PFS ([2]; baseline ANG2(90), 25-50% subgroup): 167 days | Median PFS ([2]; baseline ANG2(90), 50-75% subgroup): 145 days | Median PFS ([2]; baseline ANG2(90), 75-100% subgroup): 77 days | Median PFS ([2]; baseline Ang-2, 0-25% subgroup): 284 days | mOS (day) in each quartile ([2]; baseline Ang-2, 1st (low) quartile): 541 days | mOS (day) in each quartile ([2]; baseline Ang-2, 2nd quartile): 289 days | mOS (day) in each quartile ([2]; baseline Ang-2, 3rd quartile): 268 days | mOS (day) in each quartile ([2]; baseline Ang-2, 4th (high) quartile): 173 days | Median PFS ([2]; baseline Ang-2, 25-50% subgroup): 167 days | Median PFS ([2]; baseline Ang-2, 50-75% subgroup): 112 days | Median PFS ([2]; baseline Ang-2, 75-100% subgroup): 77 days | Median PFS ([2]; baseline HGF(86), 0-25% subgroup): 225 days | mOS (day) in each quartile ([2]; baseline HGF(86), 1st (low) quartile): 567 days | mOS (day) in each quartile ([2]; baseline HGF(86), 2nd quartile): 452 days | mOS (day) in each quartile ([2]; baseline HGF(86), 3rd quartile): 273 days | mOS (day) in each quartile ([2]; baseline HGF(86), 4th (high) quartile): 253 days | Median PFS ([2]; baseline HGF(86), 25-50% subgroup): 205 days | Median PFS ([2]; baseline HGF(86), 50-75% subgroup): 145 days | Median PFS ([2]; baseline HGF(86), 75-100% subgroup): 109 days | Median PFS ([2]; baseline IL-8(40), 0-25% subgroup): 281 days | mOS (day) in each quartile ([2]; baseline IL-8(40), 2nd quartile): 315 days | mOS (day) in each quartile ([2]; baseline IL-8(40), 3rd quartile): 340 days | mOS (day) in each quartile ([2]; baseline IL-8(40), 4th (high) quartile): 127 days | Median PFS ([2]; baseline IL-8(40), 25-50% subgroup): 222 days | Median PFS ([2]; baseline IL-8(40), 50-75% subgroup): 145 days | Median PFS ([2]; baseline IL-8(40), 75-100% subgroup): 71 days | Median PFS ([2]; baseline IP-10(56), 0-25% subgroup): 167 days | Median PFS ([2]; baseline IP-10(56), 25-50% subgroup): 174 days | Median PFS ([2]; baseline IP-10(56), 50-75% subgroup): 220 days | Median PFS ([2]; baseline IP-10(56), 75-100% subgroup): 77 days | Median PFS ([2]; baseline MCP-1(58), 0-25% subgroup): 227 days | mOS (day) in each quartile ([2]; baseline MCP-1(58), 1st (low) quartile): 463 days | mOS (day) in each quartile ([2]; baseline MCP-1(58), 2nd quartile): 393 days | mOS (day) in each quartile ([2]; baseline MCP-1(58), 3rd quartile): 340 days | mOS (day) in each quartile ([2]; baseline MCP-1(58), 4th (high) quartile): 192 days | Median PFS ([2]; baseline MCP-1(58), 25-50% subgroup): 155 days | Median PFS ([2]; baseline MCP-1(58), 50-75% subgroup): 167 days | Median PFS ([2]; baseline MCP-1(58), 75-100% subgroup): 111 days | mOS (day) in each quartile ([2]; baseline MIP-1a(64), 2nd quartile): 293 days | mOS (day) in each quartile ([2]; baseline MIP-1a(64), 3rd quartile): 353 days | mOS (day) in each quartile ([2]; baseline MIP-1a(64), 4th (high) quartile): 264 days | Median PFS ([2]; baseline MIP-la(64), 0-25% subgroup): 210 days | Median PFS ([2]; baseline MIP-la(64), 25-50% subgroup): 155 days | Median PFS ([2]; baseline MIP-la(64), 50-75% subgroup): 117 days | Median PFS ([2]; baseline MIP-la(64), 75-100% subgroup): 166 days | Median PFS ([2]; baseline PGF(91), 0-25% subgroup): 170 days | mOS (day) in each quartile ([2]; baseline PGF(91), 2nd quartile): 350 days | mOS (day) in each quartile ([2]; baseline PGF(91), 3rd quartile): 393 days | mOS (day) in each quartile ([2]; baseline PGF(91), 4th (high) quartile): 173 days | Median PFS ([2]; baseline PGF(91), 25-50% subgroup): 174 days | Median PFS ([2]; baseline PGF(91), 50-75% subgroup): 218 days | Median PFS ([2]; baseline PGF(91), 75-100% subgroup): 77 days | Median PFS ([2]; baseline TNFa(80), 0-25% subgroup): 282 days | mOS (day) in each quartile ([2]; baseline TNFa(80), 1st (low) quartile): 654 days | mOS (day) in each quartile ([2]; baseline TNFa(80), 2nd quartile): 353 days | mOS (day) in each quartile ([2]; baseline TNFa(80), 3rd quartile): 393 days | mOS (day) in each quartile ([2]; baseline TNFa(80), 4th (high) quartile): 218 days | Median PFS ([2]; baseline TNFa(80), 25-50% subgroup): 117 days | Median PFS ([2]; baseline TNFa(80), 50-75% subgroup): 166 days | Median PFS ([2]; baseline TNFa(80), 75-100% subgroup): 112 days | Median PFS ([2]; baseline Tie-2, 0-25% subgroup): 273 days | mOS (day) in each quartile ([2]; baseline Tie-2, 1st (low) quartile): 541 days | mOS (day) in each quartile ([2]; baseline Tie-2, 2nd quartile): 282 days | mOS (day) in each quartile ([2]; baseline Tie-2, 3rd quartile): 291 days | mOS (day) in each quartile ([2]; baseline Tie-2, 4th (high) quartile): 192 days | Median PFS ([2]; baseline Tie-2, 25-50% subgroup): 165 days | Median PFS ([2]; baseline Tie-2, 50-75% subgroup): 155 days | Median PFS ([2]; baseline Tie-2, 75-100% subgroup): 112 days | Median PFS ([2]; baseline VEGFA(100), 0-25% subgroup): 158 days | mOS (day) in each quartile ([2]; baseline VEGFA(100), 1st (low) quartile): 350 days | mOS (day) in each quartile ([2]; baseline VEGFA(100), 2nd quartile): 541 days | mOS (day) in each quartile ([2]; baseline VEGFA(100), 3rd quartile): 365 days | mOS (day) in each quartile ([2]; baseline VEGFA(100), 4th (high) quartile): 260 days | Median PFS ([2]; baseline VEGFA(100), 25-50% subgroup): 205 days | Median PFS ([2]; baseline VEGFA(100), 50-75% subgroup): 165 days | Median PFS ([2]; baseline VEGFA(100), 75-100% subgroup): 83 days | Median PFS ([2]; baseline sIL-2Ra(76), 0-25% subgroup): 210 days | mOS (day) in each quartile ([2]; baseline sIL-2Ra(76), 1st (low) quartile): 562 days | mOS (day) in each quartile ([2]; baseline sIL-2Ra(76), 2nd quartile): 295 days | mOS (day) in each quartile ([2]; baseline sIL-2Ra(76), 3rd quartile): 387 days | mOS (day) in each quartile ([2]; baseline sIL-2Ra(76), 4th (high) quartile): 161 days | Median PFS ([2]; baseline sIL-2Ra(76), 25-50% subgroup): 161 days | Median PFS ([2]; baseline sIL-2Ra(76), 50-75% subgroup): 177 days | Median PFS ([2]; baseline sIL-2Ra(76), 75-100% subgroup): 72.5 days | ORR ([2]; sub-group with high baseline Ang-2 (>2082 pg/ml)): 18% | mean OS [2, 3]: 8.9 months | mean PFS [2, 3]: 3.7 months | ORR ([2]; sub-group with low baseline Ang-2 (<2082 pg/ml)): 61% | mean OS [2, 4]: 23 months | mean PFS [2, 4]: 9.5 months | ORR [2, 5]: 21.1% | mOS [2, 5]: 10.6 months | mPFS [2, 5]: 5.4 months
